Tests used:
Assay in all cases: relative viability (nuclei count vs DMSO), 5 days (fraction); higher = more cells survive
NCI-H1623 = system: NCI-H1623
Procedure, shortened: (§1)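 Lung cancer cell lines were pin-tool dosed in 1536-well plates on the day after seeding, with either a lone drug or a fixed anchor-drug dose plus five library-drug doses (not always all listed) in √10 steps. Nuclei were counted on 4× images after 5 days. Relative viability is the ratio of treated-well to vehicle-well nuclei counts, with each value a median of duplicate plates.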

NCI-H596 = system: NCI-H596
Procedure, shortened: as §1

A549 = system: A549
Procedure, shortened: as §1

IA-LM = system: IA-LM
Procedure, shortened: as §1

NCI-H1703 = system: NCI-H1703
Procedure, shortened: as §1

EBC-1 = system: EBC-1
Procedure, shortened: as §1

NCI-H1299 = system: NCI-H1299
Procedure, shortened: as §1

Calu-6 = system: Calu-6
Procedure, shortened: as §1

NCI-H1648 = system: NCI-H1648
Procedure, shortened: as §1

**Q.** For `CC(C)Oc1cc(Nc2nc(N[C@@H](C)c3ccc(F)cn3)ncc2Cl)n[nH]1` [AZ23] + N=C(N)NC(=N)NCCc1ccccc1 [Phenformin] (partner 250 µM), which relative viability (NCI-H1623; first compound 0.01 µM) is on record?
**A.** The relative viability was 0.54.

**Q.** And the relative viability (NCI-H1623; first compound 0.03162 µM)?
**A.** The relative viability was 0.618.

**Q.** And the relative viability (NCI-H1623; first compound 0.3162 µM)?
**A.** Its relative viability is 0.61.

**Q.** And the relative viability (NCI-H596; first compound 0.01 µM)?
**A.** The relative viability was 0.787.

**Q.** What about the relative viability (NCI-H596; first compound 0.03162 µM) of the same compound?
**A.** The relative viability was 0.87.

**Q.** What about the relative viability (NCI-H596; first compound 0.3162 µM) of the same compound?
**A.** The relative viability was 0.739.

**Q.** What about the relative viability (A549; first compound 0.01 µM) of the same compound?
**A.** The relative viability was 0.181.

**Q.** And the relative viability (A549; first compound 0.03162 µM)?
**A.** Its relative viability is 0.227.

**Q.** And the relative viability (A549; first compound 0.3162 µM)?
**A.** The relative viability was 0.176.

**Q.** With `CC(C)Oc1cc(Nc2nc(N[C@@H](C)c3ccc(F)cn3)ncc2Cl)n[nH]1` [AZ23] + CCNC(=O)c1noc(-c2cc(C(C)C)c(O)cc2O)c1-c1ccc(CN2CCOCC2)cc1 [Luminespib] (partner 0.01 µM) as the compound, how does the relative viability (NCI-H1623; first compound 0.01 µM) read?
**A.** The relative viability was 0.476.

**Q.** What about the relative viability (NCI-H1623; first compound 0.03162 µM) of the same compound?
**A.** The relative viability was 0.49.

**Q.** And the relative viability (NCI-H1623; first compound 0.3162 µM)?
**A.** Its relative viability is 0.529.

**Q.** And the relative viability (NCI-H596; first compound 0.01 µM)?
**A.** Its relative viability is 1.13.

**Q.** And the relative viability (NCI-H596; first compound 0.03162 µM)?
**A.** Its relative viability is 1.06.

**Q.** What about the relative viability (NCI-H596; first compound 0.3162 µM) of the same compound?
**A.** The relative viability was 0.857.

**Q.** For `Clc1ccc(Nc2nnc(Cc3ccncc3)c3ccccc23)cc1` [Vatalanib] + COc1cc2c(Oc3ccc(NC(=O)C4(C(=O)Nc5ccc(F)cc5)CC4)cc3F)ccnc2cc1OCCCN1CCOCC1 [Foretinib] (partner 0.25 µM), which relative viability (NCI-H1623; first compound 0.04 µM) is on record?
**A.** Its relative viability is 0.816.

**Q.** And the relative viability (NCI-H1623; first compound 0.1265 µM)?
**A.** The relative viability was 0.861.

**Q.** What about the relative viability (NCI-H1623; first compound 0.4 µM) of the same compound?
**A.** The relative viability was 0.794.

**Q.** What about the relative viability (NCI-H1623; first compound 1.265 µM) of the same compound?
**A.** The relative viability was 0.854.

**Q.** What about the relative viability (NCI-H1623; first compound 4 µM) of the same compound?
**A.** The relative viability was 0.783.

**Q.** What about the relative viability (IA-LM; first compound 0.04 µM) of the same compound?
**A.** The relative viability was 1.16.

**Q.** What about the relative viability (IA-LM; first compound 0.1265 µM) of the same compound?
**A.** Its relative viability is 1.16.

**Q.** And the relative viability (IA-LM; first compound 0.4 µM)?
**A.** The relative viability was 1.05.

**Q.** And the relative viability (IA-LM; first compound 1.265 µM)?
**A.** The relative viability was 0.919.

**Q.** And the relative viability (IA-LM; first compound 4 µM)?
**A.** The relative viability was 1.06.

**Q.** What about the relative viability (NCI-H1703; first compound 0.04 µM) of the same compound?
**A.** The relative viability was 0.323.

**Q.** What about the relative viability (NCI-H1703; first compound 0.4 µM) of the same compound?
**A.** Its relative viability is 0.335.

**Q.** What about the relative viability (NCI-H1703; first compound 1.265 µM) of the same compound?
**A.** Its relative viability is 0.34.

**Q.** What about the relative viability (NCI-H1703; first compound 4 µM) of the same compound?
**A.** The relative viability was 0.363.

**Q.** What about the relative viability (NCI-H596; first compound 0.04 µM) of the same compound?
**A.** Its relative viability is 0.775.

**Q.** What about the relative viability (NCI-H596; first compound 0.1265 µM) of the same compound?
**A.** The relative viability was 1.06.

**Q.** What about the relative viability (NCI-H596; first compound 0.4 µM) of the same compound?
**A.** The relative viability was 0.909.

**Q.** What about the relative viability (NCI-H596; first compound 1.265 µM) of the same compound?
**A.** Its relative viability is 0.81.

**Q.** And the relative viability (NCI-H596; first compound 4 µM)?
**A.** The relative viability was 0.771.

**Q.** And the relative viability (A549; first compound 0.04 µM)?
**A.** The relative viability was 1.06.

**Q.** What about the relative viability (A549; first compound 0.1265 µM) of the same compound?
**A.** Its relative viability is 0.909.

**Q.** What about the relative viability (A549; first compound 0.4 µM) of the same compound?
**A.** The relative viability was 1.01.

**Q.** And the relative viability (A549; first compound 1.265 µM)?
**A.** The relative viability was 0.881.

**Q.** What about the relative viability (A549; first compound 4 µM) of the same compound?
**A.** The relative viability was 0.948.

**Q.** What about the relative viability (EBC-1; first compound 0.04 µM) of the same compound?
**A.** Its relative viability is 0.111.

**Q.** And the relative viability (EBC-1; first compound 0.1265 µM)?
**A.** Its relative viability is 0.109.

**Q.** What about the relative viability (EBC-1; first compound 0.4 µM) of the same compound?
**A.** Its relative viability is 0.0892.

**Q.** And the relative viability (EBC-1; first compound 1.265 µM)?
**A.** Its relative viability is 0.0958.

**Q.** What about the relative viability (EBC-1; first compound 4 µM) of the same compound?
**A.** Its relative viability is 0.118.

**Q.** What about the relative viability (NCI-H1299; first compound 0.04 µM) of the same compound?
**A.** Its relative viability is 1.1.

**Q.** And the relative viability (NCI-H1299; first compound 0.1265 µM)?
**A.** The relative viability was 1.07.

**Q.** And the relative viability (NCI-H1299; first compound 0.4 µM)?
**A.** Its relative viability is 1.15.

**Q.** And the relative viability (NCI-H1299; first compound 1.265 µM)?
**A.** The relative viability was 1.11.

**Q.** And the relative viability (NCI-H1299; first compound 4 µM)?
**A.** Its relative viability is 1.11.

**Q.** And the relative viability (Calu-6; first compound 0.04 µM)?
**A.** The relative viability was 0.967.

**Q.** And the relative viability (Calu-6; first compound 0.1265 µM)?
**A.** The relative viability was 0.765.

**Q.** What about the relative viability (Calu-6; first compound 0.4 µM) of the same compound?
**A.** The relative viability was 0.926.

**Q.** And the relative viability (Calu-6; first compound 1.265 µM)?
**A.** Its relative viability is 0.869.

**Q.** What about the relative viability (Calu-6; first compound 4 µM) of the same compound?
**A.** Its relative viability is 0.813.

**Q.** Which relative viability (NCI-H1648; first compound 0.04 µM) does the source give for `Clc1ccc(Nc2nnc(Cc3ccncc3)c3ccccc23)cc1` [Vatalanib] + COc1cccc2cc(-c3nc([C@H]4CC[C@H](C(=O)O)CC4)n4ncnc(N)c34)[nH]c12 [OSI-027] (partner 0.5 µM) here?
**A.** The relative viability was 0.258.

**Q.** And the relative viability (NCI-H1648; first compound 0.1265 µM)?
**A.** Its relative viability is 0.265.

**Q.** What about the relative viability (NCI-H1648; first compound 0.4 µM) of the same compound?
**A.** The relative viability was 0.299.

**Q.** What about the relative viability (NCI-H1648; first compound 1.265 µM) of the same compound?
**A.** Its relative viability is 0.238.

**Q.** And the relative viability (NCI-H1648; first compound 4 µM)?
**A.** Its relative viability is 0.255.

**Q.** And the relative viability (NCI-H1623; first compound 0.04 µM)?
**A.** The relative viability was 0.39.

**Q.** And the relative viability (NCI-H1623; first compound 0.1265 µM)?
**A.** The relative viability was 0.618.

**Q.** And the relative viability (NCI-H1623; first compound 0.4 µM)?
**A.** Its relative viability is 0.446.

**Q.** What about the relative viability (NCI-H1623; first compound 1.265 µM) of the same compound?
**A.** Its relative viability is 0.418.

**Q.** What about the relative viability (NCI-H1623; first compound 4 µM) of the same compound?
**A.** Its relative viability is 0.386.

**Q.** And the relative viability (NCI-H596; first compound 0.04 µM)?
**A.** Its relative viability is 0.838.

**Q.** What about the relative viability (NCI-H596; first compound 0.1265 µM) of the same compound?
**A.** Its relative viability is 0.651.

**Q.** And the relative viability (NCI-H596; first compound 0.4 µM)?
**A.** The relative viability was 0.777.

**Q.** What about the relative viability (NCI-H596; first compound 1.265 µM) of the same compound?
**A.** Its relative viability is 0.756.

**Q.** What about the relative viability (NCI-H596; first compound 4 µM) of the same compound?
**A.** Its relative viability is 0.5.

Source: the supplement of paper PMC10307832
